Test results from the NIST ThermoML archive (doi:10.1021/acs.jced.8b00975).

Assay: xn = mol fraction of the nth substance listed
Details: Liquid, Vibrating tube method

C=C(C)C(=O)OCCN(C)C [2-(dimethylamino)ethyl methylpropenoate] + CCO
mass density [kg/m3]
Details | 100 kPa | 5000 kPa | 10000 kPa | 15000 kPa | 20000 kPa | 25000 kPa | 30000 kPa | 35000 kPa
293.15 K, x1 = 0.0298 | 802.7 | 807.13 | 811.22 | 815.04 | 818.66 | 822.14 | 825.55 | 828.95
293.15 K, x1 = 0.0598 | 814.88 | 819.12 | 823.12 | 826.9 | 830.51 | 834 | 837.41 | 840.78
293.15 K, x1 = 0.0999 | 829.26 | 833.46 | 837.4 | 841.12 | 844.67 | 848.1 | 851.44 | 854.75
293.15 K, x1 = 0.1997 | 856.9 | 861.05 | 864.9 | 868.5 | 871.93 | 875.24 | 878.49 | 881.75
293.15 K, x1 = 0.3001 | 876.95 | 880.93 | 884.66 | 888.19 | 891.58 | 894.86 | 898.09 | 901.32
293.15 K, x1 = 0.3966 | 891.39 | 895.28 | 898.93 | 902.38 | 905.7 | 908.93 | 912.15 | 915.39
293.15 K, x1 = 0.4472 | 897.49 | 901.33 | 904.98 | 908.47 | 911.83 | 915.1 | 918.3 | 921.47
293.15 K, x1 = 0.4982 | 902.96 | 906.87 | 910.51 | 913.95 | 917.24 | 920.43 | 923.58 | 926.74
293.15 K, x1 = 0.55 | 907.68 | 911.66 | 915.32 | 918.74 | 921.98 | 925.14 | 928.28 | 931.5
293.15 K, x1 = 0.5964 | 911.67 | 915.5 | 919.12 | 922.56 | 925.87 | 929.09 | 932.25 | 935.39
293.15 K, x1 = 0.6982 | 918.77 | 922.55 | 926.15 | 929.6 | 932.93 | 936.16 | 939.33 | 942.44
293.15 K, x1 = 0.801 | 924.6 | 928.44 | 932.04 | 935.46 | 938.75 | 941.94 | 945.09 | 948.24
293.15 K, x1 = 0.8977 | 929.03 | 932.82 | 936.35 | 939.69 | 942.92 | 946.09 | 949.28 | 952.57
293.15 K, x1 = 0.9283 | 930.22 | 934.07 | 937.67 | 941.06 | 944.32 | 947.48 | 950.62 | 953.79
293.15 K, x1 = 0.9578 | 931.42 | 935.21 | 938.78 | 942.2 | 945.49 | 948.71 | 951.88 | 955.05
303.15 K, x1 = 0.03 | 794.45 | 798.97 | 803.18 | 807.13 | 810.87 | 814.43 | 817.87 | 821.22
303.15 K, x1 = 0.0603 | 806.55 | 811.05 | 815.24 | 819.16 | 822.87 | 826.4 | 829.79 | 833.08
303.15 K, x1 = 0.1002 | 820.45 | 824.89 | 829.01 | 832.87 | 836.53 | 840.03 | 843.44 | 846.8
303.15 K, x1 = 0.2021 | 848.13 | 852.39 | 856.38 | 860.15 | 863.75 | 867.22 | 870.62 | 873.98
303.15 K, x1 = 0.3014 | 867.56 | 871.73 | 875.66 | 879.39 | 882.96 | 886.41 | 889.8 | 893.16
303.15 K, x1 = 0.4003 | 882.15 | 886.21 | 890.08 | 893.8 | 897.38 | 900.86 | 904.27 | 907.64
303.15 K, x1 = 0.4499 | 888.16 | 892.11 | 895.91 | 899.59 | 903.17 | 906.65 | 910.06 | 913.41
303.15 K, x1 = 0.5006 | 893.42 | 897.42 | 901.25 | 904.92 | 908.47 | 911.94 | 915.35 | 918.74
303.15 K, x1 = 0.5488 | 897.81 | 901.82 | 905.64 | 909.31 | 912.87 | 916.34 | 919.76 | 923.18
303.15 K, x1 = 0.5998 | 902.09 | 906.13 | 909.95 | 913.6 | 917.13 | 920.59 | 924.04 | 927.53
303.15 K, x1 = 0.703 | 909.18 | 913.16 | 916.96 | 920.63 | 924.18 | 927.67 | 931.11 | 934.54
303.15 K, x1 = 0.8012 | 914.76 | 918.73 | 922.51 | 926.15 | 929.69 | 933.18 | 936.65 | 940.15
303.15 K, x1 = 0.9025 | 919.51 | 923.46 | 927.24 | 930.9 | 934.45 | 937.94 | 941.4 | 944.86
303.15 K, x1 = 0.9288 | 920.51 | 924.41 | 928.15 | 931.75 | 935.26 | 938.73 | 942.19 | 945.69
303.15 K, x1 = 0.9594 | 921.58 | 925.48 | 929.24 | 932.89 | 936.45 | 939.94 | 943.39 | 946.82
313.15 K, x1 = 0.0301 | 785.54 | 790.39 | 794.86 | 799.04 | 802.99 | 806.8 | 810.55 | 814.3
313.15 K, x1 = 0.0604 | 797.46 | 802.1 | 806.49 | 810.66 | 814.64 | 818.45 | 822.15 | 825.75
313.15 K, x1 = 0.1009 | 811.29 | 815.85 | 820.14 | 824.2 | 828.09 | 831.85 | 835.51 | 839.13
313.15 K, x1 = 0.2013 | 838.49 | 842.83 | 846.98 | 850.95 | 854.76 | 858.45 | 862.02 | 865.49
313.15 K, x1 = 0.302 | 858.03 | 862.37 | 866.49 | 870.43 | 874.22 | 877.88 | 881.45 | 884.95
313.15 K, x1 = 0.401 | 872.35 | 876.61 | 880.69 | 884.61 | 888.4 | 892.06 | 895.62 | 899.08
313.15 K, x1 = 0.4507 | 878.39 | 882.61 | 886.65 | 890.55 | 894.31 | 897.94 | 901.47 | 904.89
313.15 K, x1 = 0.4984 | 883.4 | 887.63 | 891.71 | 895.63 | 899.4 | 903.03 | 906.52 | 909.87
313.15 K, x1 = 0.553 | 888.58 | 892.77 | 896.81 | 900.7 | 904.45 | 908.07 | 911.57 | 914.96
313.15 K, x1 = 0.6053 | 892.9 | 897.11 | 901.15 | 905.03 | 908.77 | 912.39 | 915.89 | 919.29
313.15 K, x1 = 0.7041 | 899.74 | 903.88 | 907.89 | 911.79 | 915.55 | 919.19 | 922.7 | 926.09
313.15 K, x1 = 0.8027 | 905.5 | 909.63 | 913.65 | 917.54 | 921.29 | 924.91 | 928.37 | 931.68
313.15 K, x1 = 0.9016 | 910.19 | 914.28 | 918.27 | 922.15 | 925.92 | 929.56 | 933.08 | 936.46
313.15 K, x1 = 0.9342 | 911.48 | 915.6 | 919.6 | 923.48 | 927.25 | 930.89 | 934.42 | 937.83
313.15 K, x1 = 0.9607 | 912.61 | 916.71 | 920.71 | 924.61 | 928.4 | 932.04 | 935.54 | 938.88
